Results published in patent US6924391B2, “Alpha-amino,-thio,-oxo substituted ketones as phospholipase inhibitors” (Bristol-Myers Squibb Company, priority 2000, dated 2005).
Structures can show the parent of a compound that is named as a salt.

SMILES: COCC(=O)C(F)(F)Cc1ccc(OCCN(C)CC(c2ccc(Cl)cc2)c2ccc(Cl)cc2)cc1 (as salt: hydrochloride) [Example 9, 4-[4-[2-[N-[2-Bis-(4-chlorophenyl)ethyl]-N-methylamino]ethoxy]phenyl]-2,2-difluoro-1-methoxy-2-butanone]
- melting point: 53 to 62 °C
